Read-outs that look alike come from different tables or passages of the source.
Columns and labels:
[1] = known log-P of calibration compounds; cited from earlier work
RKO cells = test: Cytotoxicity and IC50 comparison with CBI by WST assay, 48 hours; assay type: cell-based, human; conditions: Homo sapiens, WST-8
Protocol: (§1) From the cell lines mentioned above, a large intestine cancer cell line SW480 was used as cells expressing PD-1, and a large intestine cancer cell line RKO was used as cells expressing PD-L1. An experiment was conducted to compare toxicity and IC50 between the PIP-drug conjugate compound CCC07-01 and the alkylating agent CBI used as a drug conjugate therein. The cells of each line were inoculated at 3000 cells/well to a 96-well microplate and cultured overnight. On the next day, the cells were treated with the PIP-CBI conjugate (CCC07-01) or CBI having a concentration of 0.1, 1, 10, 30, 100, 300, or 1000 nM (1 μM) for 48 hours. Then, WST-8 reagent was added to each well using Cell counting kit-8, and the mixture was reacted for 2 hours. Then, the cell count was calculated at a wavelength of 450 nm by the colorimetric analysis method using a microplate reader. The method for calculating the cell count involved: 1) obtaining the mean value of a medium alone, 2) subtracting the mean value of the medium from each well, 3) obtaining the mean value of DMSO, 4) dividing the medium mean value-subtracted value by the mean value of DMSO and then multiplying by 100, and 5) obtaining the mean value of each treatment group and a standard deviation, and preparing a graph. IC50 was calculated according to the following expression: IC50=10(LOG(A/B)×(50−C)/(D−C)+LOG(B) wherein A: a higher concentration of two concentrations sandwiching 50%, B: a lower concentration of two concentrations sandwiching 50%, C: the rate of inhibition at B, and D: the rate of inhibition at A.

SW480 cells = test: as above; assay type: cell-based, human; conditions: Homo sapiens, WST-8
Protocol: as §1

CTLA4 gene [2] = test: Experiment to silence CTLA4 gene by real-time PCR, CCC07-03; assay type: cell-based, human; conditions: A2058 cells
Protocol: (§2) A2058 cells were cultured at 1×10^5 cells/well in a 6-well plate. On the next day, the cells were treated with 0, 5, 50, or 500 nM CCC07-03 for 6 hours, 24 hours, or 48 hours. The cells were recovered, and total RNA was extracted therefrom. The extraction employed AllPrep DNA/RNA Mini Kit (Qiagen N.V., CA). Next, cDNA was prepared by reverse transcription with the extracted RNA as a template using Super Script VILO™ Master Mix (Invitrogen Corp., CA) and subjected to qPCR. The qPCR conditions involved a holding stage at 50° C. for 2 min and 95° C. for 10 min, a cycling stage (40 cycles) at 95° C. for 15 sec and at 60° C. for 1 min, and a melt curve stage at 95° C. for 15 sec, at 60° C. for 1 min, at 95° C. for 30 sec, and at 60° C. for 15 sec. A relative expression level was quantified with GAPDH (primers: SEQ ID NOs: 21 and 22) as a control. The PCR of CTLA4 employed the following primer set.

PD-L1 gene = test: Experiment to silence PD-L1 gene by real-time PCR, CCC07-03; assay type: cell-based, human
Protocol: as §2, with “RKO” for “A2058”, “GAPDH” for “GAPDH (primers: SEQ ID NOs: 21 and 22)”, “PD-L1” for “CTLA4”

mouse Pd-11 gene = test: Experiment to silence mouse Pd-11 gene by real-time PCR; assay type: cell-based; conditions: B16F1 cells
Protocol: as §2, with “B16F1” for “A2058”, “100, 200, 300, 400,” for “5, 50,”, “CCC07-04” for “CCC07-03”, “(3-tubulin” for “GAPDH (primers: SEQ ID NOs: 21 and 22)”, “Pd-11” for “CTLA4”

CTLA4 gene [3] = test: Study on CTLA4 gene silencing by negative control polyamide CCC07-04; assay type: cell-based, human; conditions: A2058 cells
Protocol: as §2, with “CCC07-04” for “CCC07-03”

[4] = known log-P of calibration compounds; cited from earlier work; remark: listed apart in the source
malignant melanoma = conditions: phase III clinical trial; cited from earlier work
[5] = 24 hours or later after administration

For `N#Cc1ccccc1` [Benzonitrile], the logPow [1] is given as 1.56.
For `Oc1cc2c(c3ccccc13)C(CCl)CN2` (stereo not shown) [CBI, 1-chloromethyl-5-hydroxy-1,2-dihydro-3H-benzo [e]indole, reference compound], the IC50 (RKO cells) was 3 nM and the IC50 (SW480 cells) was 10 nM.
In the case of `CC(=O)Nc1cn(C)c(C(=O)Nc2cn(C)c(C(=O)Nc3cc(C(=O)NCCC(=O)Nc4cn(C)c(C(=O)Nc5cc(C(=O)Nc6cc(C(=O)NCCCC(=O)Nc7cn(C)c(C(=O)Nc8cn(C)c(C(=O)Nc9cc(C(=O)NCCC(=O)Nc%10cc(C(=O)Nc%11ccc%12[nH]c(C(=O)N%13CC(CCl)c%14c%13cc(O)c%13ccccc%14%13)cc%12c%11)n(C)c%10)n(C)c9)n8)n7)n(C)c6)n(C)c5)n4)n(C)c3)n2)n1` (stereo not shown) [CCC07-03], the “expression of CTLA-4” value (CTLA4 gene [2]; 500 nM, 24 hours) is reported as “markedly decreased”, the “expression of CTLA-4” value (CTLA4 gene [2]; 6 hours) is reported as “elevated” and the “expression of PD-L1” value (PD-L1 gene; RKO cells, 50 nM, 24 hours) is reported as “statistically significantly decreased”. For the same compound, the “expression of PD-L1” value (PD-L1 gene; RKO cells, 500 nM, 6 hours) was “tended to be decreased” and the “expression of PD-L1” value (PD-L1 gene; RKO cells, 5, 50, 500 nM, 48 hours) was “decreased according to the concentration”.
In the case of `CC(=O)Nc1cn(C)c(C(=O)Nc2cn(C)c(C(=O)Nc3cc(C(=O)NCCC(=O)Nc4cc(C(=O)Nc5cn(C)c(C(=O)Nc6cn(C)c(C(=O)NCCCC(=O)Nc7cc(C(=O)Nc8cc(C(=O)Nc9cc(C(=O)NCCC(=O)Nc%10cn(C)c(C(=O)Nc%11ccc%12[nH]c(C(=O)N%13CC(CCl)c%14c%13cc(O)c%13ccccc%14%13)cc%12c%11)n%10)n(C)c9)n(C)c8)n(C)c7)n6)n5)n(C)c4)n(C)c3)n2)n1` (stereo not shown) [CCC07-04], the “expression of Pd-11” value (mouse Pd-11 gene; 100-500 nM, 6 hours) is reported as “statistically significantly decreased”, the “state of the cells (cell death suggested)” value (mouse Pd-11 gene; [5]) is reported as “All the mouse B16F1 cells floated” and the “expression of CTLA-4” value (CTLA4 gene [3]; 6 hours) is reported as “elevated”. The “state of the cells (cell death suggested)” value (CTLA4 gene [3]; [5]) was “All the cells floated”.
For `CCOC(C)=O` [Ethyl acetate], the logPow [1] is listed as 0.73.
For `c1ccc2[nH]ccc2c1` [Indole], the logPow [4] is given as 2.14 and the logPow [1] is given as 2.14.
In the case of ipilimumab: anti-CTLA-4 antibody, the “objective response rate (ORR)” value (malignant melanoma) is given as 11%.

Source: patent US20190262457A1, “NOVEL ALKYLATING AGENT” (CHIBA-PREFECTURE, priority 2016, published 2019)
